# In patent US11279681B2, “3-alkyl bicyclic [4,5,0] hydroxamic acids as HDAC inhibitors” (Valo Health, Inc., priority 2015, dated 2022):
# Biological target: T1, HDAC6 (Homo sapiens, UniProt Q9UBN7)
# T1 sequence (Q9UBN7 1-1215): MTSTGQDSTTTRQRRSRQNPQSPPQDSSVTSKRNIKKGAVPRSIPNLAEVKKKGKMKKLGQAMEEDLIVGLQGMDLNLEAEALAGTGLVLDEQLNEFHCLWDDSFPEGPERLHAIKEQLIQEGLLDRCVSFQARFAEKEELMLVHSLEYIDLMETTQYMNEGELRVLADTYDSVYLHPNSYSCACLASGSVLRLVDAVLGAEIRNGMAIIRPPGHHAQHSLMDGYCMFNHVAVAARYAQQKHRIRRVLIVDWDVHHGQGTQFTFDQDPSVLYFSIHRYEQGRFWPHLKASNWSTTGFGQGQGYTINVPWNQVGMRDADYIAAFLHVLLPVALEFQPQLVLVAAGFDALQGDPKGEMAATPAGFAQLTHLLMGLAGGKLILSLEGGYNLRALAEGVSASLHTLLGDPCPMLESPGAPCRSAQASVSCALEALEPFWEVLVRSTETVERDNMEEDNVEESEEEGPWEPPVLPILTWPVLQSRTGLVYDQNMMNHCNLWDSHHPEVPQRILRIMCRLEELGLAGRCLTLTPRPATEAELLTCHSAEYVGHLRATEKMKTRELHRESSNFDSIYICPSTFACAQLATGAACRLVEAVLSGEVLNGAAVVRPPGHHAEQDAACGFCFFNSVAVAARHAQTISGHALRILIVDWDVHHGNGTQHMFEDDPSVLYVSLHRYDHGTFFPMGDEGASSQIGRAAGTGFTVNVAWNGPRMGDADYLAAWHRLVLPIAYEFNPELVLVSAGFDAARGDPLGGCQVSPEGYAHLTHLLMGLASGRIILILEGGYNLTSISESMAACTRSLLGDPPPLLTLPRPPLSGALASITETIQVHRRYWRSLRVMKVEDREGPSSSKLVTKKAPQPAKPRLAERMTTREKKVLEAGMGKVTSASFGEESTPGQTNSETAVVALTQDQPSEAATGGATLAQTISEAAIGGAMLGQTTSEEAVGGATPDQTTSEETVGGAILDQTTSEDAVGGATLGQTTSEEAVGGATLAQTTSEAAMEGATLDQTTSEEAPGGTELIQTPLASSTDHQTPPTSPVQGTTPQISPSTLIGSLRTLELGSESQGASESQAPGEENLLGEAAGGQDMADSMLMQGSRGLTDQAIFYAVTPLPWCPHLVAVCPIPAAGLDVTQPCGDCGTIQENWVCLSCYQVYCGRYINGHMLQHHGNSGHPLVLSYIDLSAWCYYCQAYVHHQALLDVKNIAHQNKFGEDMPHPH
# Assay: In vitro histone deacetylase assay: enzymatic HDAC6 electrophoretic mobility shift assay
# Format: biochemical
# Details: full length human recombinant HDAC6, 1 nM enzyme, 2 μM peptide substrate RHKK(Ac)-NH2, 25° C.; read-out: Inhibitory Concentration (IC50) Values for Representative Compounds against HDAC6, Activity Range
# Method: The enzymatic HDAC6 assay was performed using electrophoretic mobility shift assay. […] The enzymatic reactions were assembled in 384 well plates in a total volume of 25 μL in a reaction buffer composing: 100 mM HEPES, pH7.5, 25 mM KCl, 0.1% bovine serum albumin, 0.01% Triton X-100, 1% DMSO (from compounds) 2 μM of the fluorescently labeled peptide substrate and enzyme. The enzyme was added at a final concentration of 1 nM. The peptide substrate RHKK(Ac)-NH2 was used. The compounds were tested at 12 concentrations spaced by 3× dilution intervals. Negative control samples (0%-inhibition in the absence of inhibitor) and positive control samples (100%-inhibition) were assembled in replicates of four in each assay plate. The reactions were incubated at 25° C. and quenched by the addition of 45 μL of termination buffer (100 mM HEPES, pH 7.5, 0.01% Triton X-100, 0.05% SDS).
# The terminated assay plates were analyzed on LabChip® 3000 microfluidic electrophoresis instrument (Perkin Elmer/Caliper Life Sciences). The fluorescence intensity of the electrophoretically separated de-acetylated product and substrate peptide was measured. Activity in each sample was determined as the product to sum ratio (PSR): P/(S+P), where P is the peak height of the product peptide and S is the peak height of the substrate peptide. Percent inhibition (Pinh) is determined using the following equation:
# Pinh=(PSR0%−PSRinh)/(PSR0%−PSR100%)*100, where PSRinh is the product sum ratio in the presence of inhibitor, PSR0% is the average product sum ration in the absence of inhibitor and PSR100% is the average product sum ratio in 100%-inhibition control samples. The IC50 values of inhibitors were determined by fitting the %-inhibition curves with 4 parameter dose-response model using XLfit 4 software.
row,IC50 [nM],SMILES
1,100 to 500,"COC[C@@H]1COc2cc(C(=O)NO)ccc2CN1c1ccccc1 [(R)-N-hydroxy-3-(methoxymethyl)-4-phenyl-2,3,4,5-tetrahydrobenzo[f][1,4]oxazepine-8-carboxamide]"
2,≤ 100,"COC[C@@H]1COc2cc(C(=O)NO)ccc2CN1Cc1ccc(OC)cc1 [(R)-N-hydroxy-4-(4-methoxybenzyl)-3-(methoxymethyl)-2,3,4,5-tetrahydrobenzo[f][1,4]oxazepine-8-carboxamide]"
3,> 500,"COc1ccc(CN2CCOc3cc(C(=O)NO)ccc3[C@H]2C)cc1 [(R)-N-hydroxy-4-(4-methoxybenzyl)-5-methyl-2,3,4,5-tetrahydrobenzo[f][1,4]oxazepine-8-carboxamide]"
4,> 500,"C[C@@H]1CN(C)Cc2ccc(C(=O)NO)cc2O1 [(R)—N-hydroxy-2,4-dimethyl-2,3,4,5-tetrahydrobenzo[f][1,4]oxazepine-8-carboxamide]"
5,> 500,"C[C@@H]1CNCc2ccc(C(=O)NO)cc2O1 [(R)—N-hydroxy-2-methyl-2,3,4,5-tetrahydrobenzo[f][1,4]oxazepine-8-carboxamide]"
6,≤ 100,"C[C@@H]1COc2cc(C(=O)NO)ccc2CN1C [(R)—N-hydroxy-3,4-dimethyl-2,3,4,5-tetrahydrobenzo[f][1,4]oxazepine-8-carboxamide]"
7,100 to 500,"C[C@@H]1COc2cc(C(=O)NO)ccc2CN1 [(R)—N-hydroxy-3-methyl-2,3,4,5-tetrahydrobenzo[f][1,4]oxazepine-8-carboxamide]"
8,≤ 100,"O=C(NO)c1ccc2c(c1)OC[C@H](Cc1ccccc1)N(C(=O)N1CCOCC1)C2 [(S)-3-benzyl-N-hydroxy-4-(morpholine-4-carbonyl)-2,3,4,5-tetrahydrobenzo[f][1,4]oxazepine-8-carboxamide]"
9,≤ 100,"CC[C@H]1COc2cc(C(=O)NO)ccc2CN1Cc1ccc(OC)cc1 [(S)-3-ethyl-N-hydroxy-4-(4-methoxybenzyl)-2,3,4,5-tetrahydrobenzo[f][1,4]oxazepine-8-carboxamide]"
10,≤ 100,"CC[C@H]1COc2cc(C(=O)NO)ccc2CN1c1ccccc1C [(S)-3-ethyl-N-hydroxy-4-(o-tolyl)-2,3,4,5-tetrahydrobenzo[f][1,4]oxazepine-8-carboxamide]"
11,≤ 100,"CC[C@H]1COc2cc(C(=O)NO)ccc2CN1C [(S)-3-ethyl-N-hydroxy-4-methyl-2,3,4,5-tetrahydrobenzo[f][1,4]oxazepine-8-carboxamide]"
12,≤ 100,"CC[C@H]1COc2cc(C(=O)NO)ccc2CN1c1ccccc1 [(S)-3-ethyl-N-hydroxy-4-phenyl-2,3,4,5-tetrahydrobenzo[f][1,4]oxazepine-8-carboxamide]"
13,≤ 100,"C[C@H]1COc2cc(C(=O)NO)ccc2CN1c1ccccc1Cl [(S)-4-(2-chlorophenyl)-N-hydroxy-3-methyl-2,3,4,5-tetrahydrobenzo[f][1,4]oxazepine-8-carboxamide]"
14,≤ 100,"C[C@H]1COc2cc(C(=O)NO)ccc2CN1c1ccccc1F [(S)-4-(2-fluorophenyl)-N-hydroxy-3-methyl-2,3,4,5-tetrahydrobenzo[f][1,4]oxazepine-8-carboxamide]"
15,≤ 100,"C[C@H]1COc2cc(C(=O)NO)ccc2CN1C(=O)N1CCOc2ccccc21 [(S)-4-(3,4-dihydro-2H-benzo[b][1,4]oxazine-4-carbonyl)-N-hydroxy-3-methyl-2,3,4,5-tetrahydrobenzo[f][1,4]oxazepine-8-carboxamide]"
16,≤ 100,"C[C@H]1COc2cc(C(=O)NO)ccc2CN1c1cccc(F)c1 [(S)-4-(3-fluorophenyl)-N-hydroxy-3-methyl-2,3,4,5-tetrahydrobenzo[f][1,4]oxazepine-8-carboxamide]"
17,≤ 100,"C[C@H]1COc2cc(C(=O)NO)ccc2CN1c1ccc(Cl)cc1 [(S)-4-(4-chlorophenyl)-N-hydroxy-3-methyl-2,3,4,5-tetrahydrobenzo[f][1,4]oxazepine-8-carboxamide]"
18,≤ 100,"C[C@H]1COc2cc(C(=O)NO)ccc2CN1Cc1ccc(F)cc1 [(S)-4-(4-fluorobenzyl)-N-hydroxy-3-methyl-2,3,4,5-tetrahydrobenzo[f][1,4]oxazepine-8-carboxamide]"
19,≤ 100,"C[C@H]1COc2cc(C(=O)NO)ccc2CN1c1ccc(F)cc1 [(S)-4-(4-fluorophenyl)-N-hydroxy-3-methyl-2,3,4,5-tetrahydrobenzo[f][1,4]oxazepine-8-carboxamide]"
20,≤ 100,"C[C@H]1COc2cc(C(=O)NO)ccc2CN1C(=O)N1C[C@H]2CC[C@H](C1)O2 [(S)-4-((1R,5R)-8-oxa-3-azabicyclo[3.2.1]octane-3-carbonyl)-N-hydroxy-3-methyl-2,3,4,5-tetrahydrobenzo[f][1,4]oxazepine-8-carboxamide]"
21,≤ 100,"C[C@H]1COc2cc(C(=O)NO)ccc2CN1C(=O)N1C[C@@H]2CC[C@@H](C1)O2 [(S)-4-((1S,5S)-8-oxa-3-azabicyclo[3.2.1]octane-3-carbonyl)-N-hydroxy-3-methyl-2,3,4,5-tetrahydrobenzo[f][1,4]oxazepine-8-carboxamide]"
22,100 to 500,"C[C@H]1COc2cc(C(=O)NO)ccc2CN1S(=O)(=O)c1ccc(F)cc1 [(S)-4-((4-fluorophenyl)sulfonyl)-N-hydroxy-3-methyl-2,3,4,5-tetrahydrobenzo[f][1,4]oxazepine-8-carboxamide]"
23,≤ 100,"C[C@H]1COc2cc(C(=O)NO)ccc2CN1C(=O)N1CCC1 [(S)-4-(azetidine-1-carbonyl)-N-hydroxy-3-methyl-2,3,4,5-tetrahydrobenzo[f][1,4]oxazepine-8-carboxamide]"
24,≤ 100,"C[C@H]1COc2cc(C(=O)NO)ccc2CN1CC1CCC1 [(S)-4-(cyclobutylmethyl)-N-hydroxy-3-methyl-2,3,4,5-tetrahydrobenzo[f][1,4]oxazepine-8-carboxamide]"
25,≤ 100,"C[C@H]1COc2cc(C(=O)NO)ccc2CN1CC1CCCCC1 [(S)-4-(cyclohexylmethyl)-N-hydroxy-3-methyl-2,3,4,5-tetrahydrobenzo[f][1,4]oxazepine-8-carboxamide]"
26,≤ 100,"C[C@H]1COc2cc(C(=O)NO)ccc2CN1CC1CCCC1 [(S)-4-(cyclopentylmethyl)-N-hydroxy-3-methyl-2,3,4,5-tetrahydrobenzo[f][1,4]oxazepine-8-carboxamide]"
27,≤ 100,"C[C@H]1COc2cc(C(=O)NO)ccc2CN1CC1CC1 [(S)-4-(cyclopropylmethyl)-N-hydroxy-3-methyl-2,3,4,5-tetrahydrobenzo[f][1,4]oxazepine-8-carboxamide]"
28,≤ 100,"CCS(=O)(=O)N1Cc2ccc(C(=O)NO)cc2OC[C@@H]1C [(S)-4-(ethylsulfonyl)-N-hydroxy-3-methyl-2,3,4,5-tetrahydrobenzo[f][1,4]oxazepine-8-carboxamide]"
29,100 to 500,"C[C@H]1COc2cc(C(=O)NO)ccc2CN1C1CCCC1 [(S)-4-cyclopentyl-N-hydroxy-3-methyl-2,3,4,5-tetrahydrobenzo[f][1,4]oxazepine-8-carboxamide]"
30,100 to 500,"CCN1Cc2ccc(C(=O)NO)cc2OC[C@@H]1C [(S)-4-ethyl-N-hydroxy-3-methyl-2,3,4,5-tetrahydrobenzo[f][1,4]oxazepine-8-carboxamide]"
